Columns and labels:
Type in all cases: cell-based
LX2 cells = assay: CCK-8 cell viability assay, liver cell line (LX2); conditions: LX2 liver (stellate) cells, 20 μM, 24 hours, CCK-8, FIG. 1
Protocol: (§1) LX2 cells, which are liver cells (stellate cells), were seeded at 1×10^4 per well in a 96 well plate, cultured for 24 hours in a 37° C., 5% CO2 incubator, and then treated with the compound of the present invention (TB-840) at a concentration of 20 μM for 24 hours. After culturing for 24 hours, the cells were treated with 10 μl of CCK-8 solution for 2 hours.

A549 cells = assay: CCK-8 cell viability assay, lung cell line (A549); conditions: A549 lung carcinoma cells, 20 μM, 24 hours, CCK-8, FIG. 2
Protocol: as §1, with “A549” for “LX2”, “lung” for “liver”, “(lung carcinoma” for “(stellate”, “1.5×10^4” for “1×10^4”

HK-2 cells = assay: CCK-8 cell viability assay, kidney cell line (HK-2); conditions: HK-2 kidney proximal tubular cells, 20 μM, 24 hours, CCK-8, FIG. 3
Protocol: as §1, with “HK-2” for “LX2”, “kidney” for “liver”, “(proximal tubular” for “(stellate”

collagen type 1 (COL1A1) [1] = assay: RT-qPCR gene expression of COL1A1 in TGF-β treated LX2 cells; conditions: TGF-β 10 ng/ml + compound 20 μM, 24 hours, FIG. 4
Protocol: (§2) In order to confirm the inhibitory effect of the compound of the present invention on the gene expression of fibrosis-related markers, the gene expression of collagen type 1 (type 1 collagen; COL1A1) and fibronectin, which are fibrosis-related markers, was confirmed through RT-qPCR analysis. As a control group, TGF-β (transforming growth factor-β) was used. TGF-β is known to promote the production of extracellular matrix such as collagen and promote fibrosis of tissues.
(§3) LX2 cells were seeded at 3.5×10^5 per well in a 6 well plate, cultured for 24 hours in a 37° C., 5% CO2 incubator, and then treated with TGF-β at a concentration of 10 ng/ml and the compound of the present invention (TB-840) at a concentration of 20 μM, and cultured for 24 hours. After culturing for 24 hours, the cells were washed twice with phosphate buffered saline (PBS), and then RNA extraction was performed using a RNA-spin™ total RNA extraction kit (iNtRON Biotechnology, Cat no. 17211) protocol. Thereafter, the RNA concentration was measured using a Nanodrop device, and cDNA was synthesized using a Maxime™ RT PreMix (iNtRON Biotechnology, Cat no. 25081) and a MiniAmp™ Termal Cycler device. Thereafter, the gene expression levels of COL1A1 and fibronectin were measured using a QuantStudio 5 Real-Time PCR device.

fibronectin [2] = assay: RT-qPCR gene expression of fibronectin in TGF-β treated LX2 cells; conditions: TGF-β 10 ng/ml + compound 20 μM, 24 hours, FIG. 5
Protocol: as §2, §3

collagen type 1 (COL1A1) [3] = assay: RT-qPCR gene expression of COL1A1 in TGF-β treated A549 cells; conditions: TGF-β 10 ng/ml + compound 20 μM, 24 hours, FIG. 6
Protocol: as §2
as §3, with “A549” for “LX2”, “2.5×10^5” for “3.5×10^5”

fibronectin [4] = assay: RT-qPCR gene expression of fibronectin in TGF-β treated A549 cells; conditions: TGF-β 10 ng/ml + compound 20 μM, 24 hours, FIG. 7
Protocol: as §2
as §3, with “A549” for “LX2”, “2.5×10^5” for “3.5×10^5”

collagen type 1 (COL1A1) [5] = assay: RT-qPCR gene expression of COL1A1 in TGF-β treated HK-2 cells; conditions: TGF-β 10 ng/ml + compound 20 μM, 24 hours, FIG. 8
Protocol: as §2
as §3, with “HK-2” for “LX2”, “2×10^5” for “3.5×10^5”

fibronectin [6] = assay: RT-qPCR gene expression of fibronectin in TGF-β treated HK-2 cells; conditions: TGF-β 10 ng/ml + compound 20 μM, 24 hours, FIG. 9
Protocol: as §2
as §3, with “HK-2” for “LX2”, “2×10^5” for “3.5×10^5”

collagen type 1 (COL1A1) [7] = assay: Western blot protein expression of COL1A1 in TGF-β treated LX2 cells; conditions: TGF-β 10 ng/ml + compound 20 μM, 48 hours, FIGS. 10 to 12
Text: (§4) In order to confirm the inhibitory effect of the compound of the present invention on the protein expression of fibrosis-related markers, the protein expression of collagen type 1 (type 1 collagen; COL1A1) and fibronectin, which are fibrosis-related markers, and HSP60 was confirmed through Western blot analysis. As a control group, TGF-β (transforming growth factor-β) was used. TGF-β is known to promote the production of extracellular matrix such as collagen and promote fibrosis of tissues.
(§5) LX2 cells were seeded at 7.6×10^5 per dish in a 60 φ dish, cultured for 24 hours in a 37° C., 5% CO2 incubator, and then treated with TGF-β at a concentration of 10 ng/ml and the compound of the present invention (TB-840) at a concentration of 20 μM, and cultured for 48 hours. After collecting the cultured cells, the cell pellet was spun down using a centrifuge (13,000 rpm, 5 min, 4° C.) and then lysed by adding lysis buffer with vortexing for 1 hour at 10-minute intervals, and then cell membrane components, etc. were removed using a centrifuge (13,000 rpm, 20 min, 4° C.). The sample was prepared by measuring according to the protocol using a BCA protein assay kit. […] Thereafter, the primary antibody was reacted overnight, and then the secondary antibody was bound, and the protein expression of COL1A1 and fibronectin was measured using an Azure biosystems (C300) device.

fibronectin [8] = assay: Western blot protein expression of fibronectin in TGF-β treated LX2 cells; conditions: TGF-β 10 ng/ml + compound 20 μM, 48 hours, FIGS. 10 to 12
Text: as §4, §5

HSP60 [9] = assay: Western blot protein expression of HSP60 in TGF-β treated LX2 cells; conditions: TGF-β 10 ng/ml + compound 20 μM, 48 hours, FIGS. 10 to 12
Text: as §4, §5

collagen type 1 (COL1A1) [10] = assay: Western blot protein expression of COL1A1 in TGF-β treated A549 cells; conditions: TGF-β 10 ng/ml + compound 20 μM, 24 hours, FIGS. 13 to 15
Text: as §4
as §5, with “A549” for “LX2”, “2.5×10^5” for “7.6×10^5”, “well” for “dish”, “6 well plate,” for “60 φ dish,”, “24” for “48”

fibronectin [11] = assay: Western blot protein expression of fibronectin in TGF-β treated A549 cells; conditions: TGF-β 10 ng/ml + compound 20 μM, 24 hours, FIGS. 13 to 15
Text: as §4
as §5, with “A549” for “LX2”, “2.5×10^5” for “7.6×10^5”, “well” for “dish”, “6 well plate,” for “60 φ dish,”, “24” for “48”

HSP60 [12] = assay: Western blot protein expression of HSP60 in TGF-β treated A549 cells; conditions: TGF-β 10 ng/ml + compound 20 μM, 24 hours, FIGS. 13 to 15
Text: as §4
as §5, with “A549” for “LX2”, “2.5×10^5” for “7.6×10^5”, “well” for “dish”, “6 well plate,” for “60 φ dish,”, “24” for “48”

collagen type 1 (COL1A1) [13] = assay: Western blot protein expression of COL1A1 in TGF-β treated HK-2 cells; conditions: TGF-β 10 ng/ml + compound 20 μM, 48 hours, FIGS. 16 to 18
Text: as §4
as §5, with “HK-2” for “LX2”, “1×10^6” for “7.6×10^5”

fibronectin [14] = assay: Western blot protein expression of fibronectin in TGF-β treated HK-2 cells; conditions: TGF-β 10 ng/ml + compound 20 μM, 48 hours, FIGS. 16 to 18
Text: as §4
as §5, with “HK-2” for “LX2”, “1×10^6” for “7.6×10^5”

HSP60 [15] = assay: Western blot protein expression of HSP60 in TGF-β treated HK-2 cells; conditions: TGF-β 10 ng/ml + compound 20 μM, 48 hours, FIGS. 16 to 18
Text: as §4
as §5, with “HK-2” for “LX2”, “1×10^6” for “7.6×10^5”

Compound: CNC(=S)NCc1ccc(OCc2ccccc2)cc1 [TB-840, 1-(4-benzyloxy-benzyl)-3-methyl-thiourea]
- cell viability (LX2 cells): ~100%
- cell viability (A549 cells): ~100%
- cell viability (HK-2 cells): ~100%
- gene expression of COL1A1 compared to the group treated with TGF-β (collagen type 1 (COL1A1) [1]): reduced
- gene expression of fibronectin compared to the group treated with TGF-β (fibronectin [2]): reduced
- gene expression of COL1A1 compared to the group treated with TGF-β (collagen type 1 (COL1A1) [3]): reduced
- gene expression of fibronectin compared to the group treated with TGF-β (fibronectin [4]): reduced
- gene expression of COL1A1 compared to the group treated with TGF-β (collagen type 1 (COL1A1) [5]): reduced
- gene expression of fibronectin compared to the group treated with TGF-β (fibronectin [6]): reduced
- protein expression of COL1A1 compared to the group treated with TGF-β (collagen type 1 (COL1A1) [7]): reduced
- protein expression of fibronectin compared to the group treated with TGF-β (fibronectin [8]): reduced
- protein expression of HSP60 (HSP60 [9]): no change
- protein expression of COL1A1 compared to the group treated with TGF-β (collagen type 1 (COL1A1) [10]): reduced
- protein expression of fibronectin compared to the group treated with TGF-β (fibronectin [11]): reduced
- protein expression of HSP60 (HSP60 [12]): no change
- protein expression of COL1A1 compared to the group treated with TGF-β (collagen type 1 (COL1A1) [13]): reduced
- protein expression of fibronectin compared to the group treated with TGF-β (fibronectin [14]): reduced
- protein expression of HSP60 (HSP60 [15]): no change

Reference: patent publication US20250312299A1, “COMPOSITION COMPRISING THIOUREA DERIVATIVE FOR PREVENTION OR TREATMENT OF FIBROTIC DISEASE” (THERASID BIOSCIENCE INC., priority 2022, published 2025)
